The record followed here is patent US10336733B2, “Aryl acylsulfonamides as BLT1 antagonists” (Merck Sharp & Dohme Corp., priority 2015, dated 2019).

The structures appear in SMILES notation.

Chain of human BLT1 receptor (Q15722 whole entry): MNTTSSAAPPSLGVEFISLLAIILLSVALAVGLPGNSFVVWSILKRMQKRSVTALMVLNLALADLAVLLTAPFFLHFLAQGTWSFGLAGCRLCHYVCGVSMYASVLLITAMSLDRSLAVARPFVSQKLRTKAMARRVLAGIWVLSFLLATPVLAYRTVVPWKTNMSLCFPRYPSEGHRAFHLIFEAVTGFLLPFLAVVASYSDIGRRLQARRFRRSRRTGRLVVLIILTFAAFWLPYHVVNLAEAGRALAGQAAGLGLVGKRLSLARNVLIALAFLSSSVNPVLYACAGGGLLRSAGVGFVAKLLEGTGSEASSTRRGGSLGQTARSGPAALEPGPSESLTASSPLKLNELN

The test has as its target human BLT1 receptor (Homo sapiens (Human), UniProt Q15722). Put plainly: BLT-1 cAMP Assay. Format: cell-based. The note with it: antagonist mode; HEK293 cells recombinantly expressing human BLT1 receptor; forskolin 4 μM and LTB4 2 nM; cAMP detection. How it is done: The ability of compounds to antagonize the human BLT1 receptor was determined using a kit to measure changes in intracellular cyclic AMP levels (cAMP dynamic assay kit, Cisbio Cat. No. 62AM4PEC). HEK293 cells recombinantly expressing human BLT1 receptor, previously frozen in Recovery Medium (Life Technologies, Cat. No. 12648-010) were thawed and diluted into assay medium (HBSS (Hyclone SH 30268.01), 20 mM HEPES (Gibco 15630-106), 800 μM IBMX (Sigma I5879), 0.1% DTPA BSA (Perkin Elmer CR84-100)). The cell suspension was centrifuged at 200×g for 10 min and then resuspended in fresh assay medium to a density of 2.5×10^5 cells/mL. A Labcyte Echo 550 acoustic dispenser was used to transfer 25 nL of test compound dissolved in DMSO into the wells of a dry 384-well plate (Greiner 784075). All subsequent liquid additions were performed using a BIORAPTR (FRD; Beckman Coulter). Next, 5 μL of cell suspension was added and incubated for 20 min. at 37° C. and 5% CO2 in a humidified plastic tray. To test for agonist activity […] of assay buffer containing forskolin (Sigma F-6886. 4 μM for BLT1) was added and incubated for 30 minutes at 37° C. and 5% CO2 in a humidified plastic tray. To test for antagonist activity 5 μL of assay buffer containing forskolin (Sigma F-6886. 4 μM for BLT1) and either LTB4 (Sigma Aldrich L0517; 2 nM BLT1) was added and incubated for 30 minutes at 37° C. and 5% CO2 in a humidified plastic tray.
The levels of cAMP were detected using the CisBio kit following the manufacturer's instructions: cAMP-d2 vial was reconstituted with distilled water and then diluted accordingly with conjugate & lysis buffer. 5 μL of cAMP-d2 working solution was added to all of the wells of the assay plate. cAMP-Cryptate vial was reconstituted with distilled water and then diluted accordingly with conjugate & lysis buffer. 5 μL of cAMP-Cryptate working solution were added to the assay plate. The assay plate was shaken for 3 minutes and incubated at room temperature for 45 minutes, then read on Perkin Elmer Envision. cAMP standard curve and fit data were plotted using a 4 parameter dose response curve fitting algorithm to fit curve. A 4-parameter curve fit (Max, min, log EC50 and slope) was used to transform fluorescent 665 nm/615 nm ratio signal to cAMP concentration. After normalization to treated and untreated controls, the percent effect of signal at each compound concentration was calculated. The plot of percent effect versus the log of compound concentration was fit with a 4-parameter concentration response equation to calculate EC50 values. Compound concentrations tested were 10 000, 3 333, 1 111, 370.4, 123.4, 41.2, 13.7, 4.6, 1.5 and 0.5 nM with 0.25% residual DMSO.
On to `CC1(S(=O)(=O)NC(=O)c2ccccc2-c2ccc3c(c2)OC[C@H](Cc2cscn2)[C@H]3O)CC1` (racemic) [Example 25, 2-(Rac-trans)-4-Hydroxy-3-(thiazol-4-ylmethyl)chroman-7-yl)-N-((1-methylcyclopropyl)sulfonyl)benzamide], for which the EC50 stood at 16 nM.
Next, `Cn1nccc1C[C@@H]1COc2cc(-c3ccccc3C(=O)NS(=O)(=O)C3(C)CC3)ccc2[C@H]1O` (racemic) [Example 28, 2-(Rac-trans)-4-Hydroxy-3-((1-methyl-1H-pyrazol-5-yl)methyl)chroman-7-yl)-N-((1-methylcyclopropyl)sulfonyl)benzamide]: 360 nM.
With `Cc1nnc(C[C@@H]2COc3cc(-c4ccccc4C(=O)NS(=O)(=O)C4(C)CC4)ccc3[C@H]2O)s1` (racemic) [Example 29, 2-((Rac-trans)-4-Hydroxy-3-((5-methyl-1,3,4-thiadiazol-2-yl)methyl)chroman-7-yl)-N-((1-methylcyclopropyl)sulfonyl)benzamide], the EC50 was 740 nM.
Turning to `Cc1nnc(C[C@@H]2COc3cc(-c4ccccc4C(=O)NS(=O)(=O)C(C)(C)C)ccc3[C@H]2O)s1` (racemic) [Example 31, N-(tert-Butylsulfonyl)-2-((rac-trans)-4-hydroxy-3-((5-methyl-1,3,4-thiadiazol-2-yl)methyl)chroman-7-yl)benzamide], the EC50 was 556 nM.
The value for `CC(C)(C)S(=O)(=O)NC(=O)c1ccccc1-c1ccc2c(c1)OC[C@@H](Cc1cscn1)[C@@H]2O` (racemic) [Example 32, N-(tert-Butylsulfonyl)-2-((rac-trans)-4-hydroxy-3-(thiazol-4-ylmethyl)chroman-7-yl)benzamide] was 11 nM; that for `Cn1nccc1C[C@@H]1COc2cc(-c3ccccc3C(=O)NS(=O)(=O)C(C)(C)C)ccc2[C@H]1O` (racemic) [Example 35, N-(tert-Butylsulfonyl)-2-((rac-trans)-4-hydroxy-3-((1-methyl-1H-pyrazol-5-yl)methyl)chroman-7-yl)benzamide] was 95 nM; that for `CCn1nccc1C[C@@H]1COc2cc(-c3ccccc3C(=O)NS(=O)(=O)C(C)(C)C)ccc2[C@H]1O` (racemic) [Example 36, N-(tert-Butylsulfonyl)-2-((rac-trans)-3-((1-ethyl-1H-pyrazol-5-yl)methyl)-4-hydroxychroman-7-yl)benzamide] was 81 nM.
The value for `O=C(NS(=O)(=O)C(F)(F)F)c1ccc(F)cc1-c1ccc2c(c1)OC[C@H](Cc1ccc(-c3ccccc3)cc1)[C@@H]2O` (racemic) [Example 39, 2-((Rac-cis)-3-([1,1′-Biphenyl]-4-ylmethyl)-4-hydroxychroman-7-yl)-4-fluoro-N-((trifluoromethyl)sulfonyl)benzamide] was 37 nM; that for `O=C(NS(=O)(=O)C(F)(F)F)c1ccc(F)cc1-c1ccc2c(c1)OC[C@H](Cc1ccc(-c3ccccc3)cc1)[C@H]2O` (racemic) [Example 40, 2-((Rac-trans)-3-([1,1′-Biphenyl]-4-ylmethyl)-4-hydroxychroman-7-yl)-4-fluoro-N-((trifluoromethyl)sulfonyl)benzamide] was 9 nM; that for `CC1(S(=O)(=O)NC(=O)c2ccccc2-c2ccc3c(c2)OC[C@@H](Cc2coc(-c4ccccc4)n2)[C@@H]3O)CC1` (racemic) [Example 43, 2-(Rac-trans)-4-hydroxy-3-((2-phenyloxazol-4-yl)methy)chroman-7-yl)-N-((1-methylcyclopropyl)sulfonyl)benzamide] was 19 nM.
The value for `CC1(S(=O)(=O)NC(=O)c2ccccc2-c2ccc3c(c2)OCC(Cc2coc(-c4ccccc4)n2)C3O)CC1` (racemic) [Example 46, 2-(Rac-trans)-4-Hydroxy-3-((2-phenyloxazol-4-yl)methyl)chroman-7-yl)-N-((1-methylcyclopropyl)sulfonyl)benzamide] was 15 nM.
In the case of `O=C(NS(=O)(=O)C(F)(F)F)c1ccc(F)cc1-c1ccc2c(c1)OC[C@@H](Cc1ccccn1)[C@@H]2O` (single isomer, unassigned) [Example 1, 4-Fluoro-2-((3R,4S or 3S,4R)-4-hydroxy-3-(pyridin-2-ylmethyl)chroman-7-yl)-N-((trifluoromethyl)sulfonyl)benzamide], the EC50 turned out to be 650 nM.
With `O=C(NS(=O)(=O)C(F)(F)F)c1ccc(F)cc1-c1ccc2c(c1)OC[C@H](Cc1ccccn1)[C@H]2O` (single isomer, unassigned) [Example 2, 4-Fluoro-2-((3S,4R or 3R,4S)-4-hydroxy-3-(pyridin-2-ylmethyl)chroman-7-yl)-N-((trifluoromethyl)sulfonyl)benzamide], the EC50 turned out to be 6 nM.
Next, `CS(=O)(=O)NC(=O)c1ccc(F)cc1-c1ccc2c(c1)OC[C@@H](Cc1ccccn1)[C@@H]2O` (single isomer, unassigned) [Example 3, 4-Fluoro-2-((3R,4S or 3S,4R)-4-hydroxy-3-(pyridin-2-ylmethyl)chroman-7-yl)-N-(methylsulfonyl)benzamide]: 1720 nM; `CS(=O)(=O)NC(=O)c1ccc(F)cc1-c1ccc2c(c1)OC[C@H](Cc1ccccn1)[C@H]2O` (single isomer, unassigned) [Example 4, 4-Fluoro-2-((3S,4R or 3R,4S)-4-hydroxy-3-(pyridin-2-ylmethyl)chroman-7-yl)-N-(methylsulfonyl)benzamide]: 93 nM.
The value for `O=C(NS(=O)(=O)C1CC1)c1ccccc1-c1ccc2c(c1)OC[C@@H](Cc1ccccn1)[C@@H]2O` (single isomer, unassigned) [Example 5, N-(Cyclopropylsulfonyl)-2-((3R,4S or 3S,4R)-4-hydroxy-3-(pyridin-2-ylmethyl)chroman-7-yl)benzamide] was 2170 nM; that for `O=C(NS(=O)(=O)C1CC1)c1ccccc1-c1ccc2c(c1)OC[C@H](Cc1ccccn1)[C@H]2O` (single isomer, unassigned) [Example 6, N-(Cyclopropylsulfonyl)-2-((3S,4R or 3R,4S)-4-hydroxy-3-(pyridin-2-ylmethyl)chroman-7-yl)benzamide] was 28 nM.
The value for `CC1(S(=O)(=O)NC(=O)c2ccccc2-c2ccc3c(c2)OC[C@@H](Cc2ccccn2)[C@@H]3O)CC1` (single isomer, unassigned) [Example 7, 2-((3R,4S or 3S,4R)-4-Hydroxy-3-(pyridin-2-ylmethyl)chroman-7-yl)-N-((1-methylcyclopropyl)sulfonyl)benzamide] was 1270 nM; that for `CC1(S(=O)(=O)NC(=O)c2ccccc2-c2ccc3c(c2)OC[C@H](Cc2ccccn2)[C@H]3O)CC1` (single isomer, unassigned) [Example 8, 2-((3S,4R or 3R,4S)-4-Hydroxy-3-(pyridin-2-ylmethyl)chroman-7-yl)-N-((1-methylcyclopropyl)sulfonyl)benzamide] was 22 nM; that for `CC1(S(=O)(=O)NC(=O)c2ccc(F)cc2-c2ccc3c(c2)OC[C@H](Cc2ccccn2)[C@H]3O)CC1` (single isomer, unassigned) [Example 9, 4-Fluoro-2-((3S,4R or 3R,4S)-4-hydroxy-3-(pyridin-2-ylmethyl)chroman-7-yl)-N-((1-methylcyclopropyl)sulfonyl)benzamide] was 4 nM.

By EC50 is commonly meant the concentration needed to bring the measured effect to its halfway point.
